Data: US12550885B2, “Red blood cell storage solutions, solution additives, and methods for improving the storage of red blood cells” (University of Cincinnati, priority 2016, dated 2026)

Assays:
human pRBCs [1] = experiment: Hemolysis (cell-free hemoglobin) in stored human pRBCs; format: cell-based; settings: human pRBCs stored at 4° C., increasing AT concentration
Description: (§1) Human pRBCs were obtained from Hoxworth Blood Bank (Cincinnati, OH) and stored at 4° C. for 42 days according to standard blood banking practice. Murine pRBCs were obtained as previously described. Briefly, donor mice were anesthetized with intraperitoneal pentobarbital (0.1 mg/g body weight) and blood was collected via cardiac puncture into CP2D anticoagulant-coated syringes. CP2D was then added to the whole blood in a 1:7 ratio and gently mixed. Whole blood was centrifuged at 1,000 g for 10 minutes at 4° C. and platelet-rich plasma was discarded. Storage solution (AS-3) was added to erythrocytes in a 2:9 ratio using the original whole blood volume. Units were stored at 4° C. for 14 days.
(§2) Erythrocytes were pelleted from pRBC samples at 2,000 g for 10 minutes at 4° C. The supernatant from this spin was then centrifuged at 10,000 g for 10 minutes at 4° C. to pellet any remaining cells or platelets. The MP-rich supernatant from this second spin was used to characterize MP production and hemolysis. […]
(§3) Hemoglobin in the MP-rich supernatant was quantified using a Coulter AcT diff Analyzer (Beckman Coulter Corp., Brea, CA). Cell size (forward scatter), complexity (side scatter), phosphatidylserine exposure (annexin V positivity), and band 3 protein integrity (eosin-5-maleimide^68) were analyzed using an Attune flow cytometer (Life Technologies, Carlsbad, CA). […]

mouse pRBCs [2] = experiment: Microparticle formation in stored mouse pRBCs (Nanoparticle Tracking Analysis); format: cell-based; settings: mouse pRBCs stored at 4° C. for 14 days, inhibitor added prior to storage
Description: as §1
(§4) Erythrocytes were pelleted from pRBC samples at 2,000 g for 10 minutes at 4° C. The supernatant from this spin was then centrifuged at 10,000 g for 10 minutes at 4° C. to pellet any remaining cells or platelets. The MP-rich supernatant from this second spin was used to characterize MP production and hemolysis. MPs were pelleted using a 20,000 g spin for 30 minutes at 4° C.

mouse erythrocytes = experiment: Erythrocyte characterization by flow cytometry (size, complexity, phosphatidylserine exposure, band 3 integrity); format: cell-based
Description: as §1
Hemoglobin in the MP-rich supernatant was quantified using a Coulter AcT diff Analyzer (Beckman Coulter Corp., Brea, CA). Cell size (forward scatter), complexity (side scatter), phosphatidylserine exposure (annexin V positivity), and band 3 protein integrity (eosin-5-maleimide^68) were analyzed using an Attune flow cytometer (Life Technologies, Carlsbad, CA). Antibodies for ter119, CD235a, CD41, CD45, and Annexin V were acquired from BD Biosciences (San Diego, CA), and eosin-5-maleimide was obtained from Life Technologies (Carlsbad, CA).

human pRBCs [3] = experiment: Microparticle formation in stored human pRBCs (Nanoparticle Tracking Analysis); format: cell-based; settings: human pRBCs stored at 4° C., increasing doses added prior to storage
Description: as §1, §4

C57BL/6 mice = experiment: Lung inflammation after transfusion of aged pRBCs, histology (edema, Gr1 inflammatory cells, ZO1 tight junctions); format: in vivo, mouse; settings: 200 μl IV aged pRBCs treated with 125 μM AT, lungs taken 6 hours after transfusion
Description: Male C57BL/6 mice aged 8-10 weeks were purchased from Jackson Laboratories, fed standard laboratory diet and water ad libitum, and acclimated for 1 week in climate-controlled conditions with 12 hours light-dark cycles prior to use. Asm-deficient mice (Asm^−/−) on a C57BL/6 background were used and compared to syngenic C57Bl/6 wild type mice as controls. All experiments were approved by the Institutional Animal Care and Use Committee at the University of Cincinnati. To study the effect of AT treatment on lung inflammation following blood transfusion, mice received 200 μl IV injections of pRBCs or MPs. Lungs were taken 6 hours after transfusion for either histologic or Evans blue evaluation. Histologic lung sections were examined for evidence of lung edema with hematoxylin and inflammatory cells with anti-Gr1 antibodies (AbD Serotec, Raleigh, NC). Tight junction integrity was assessed by staining lung slides with Cy3-conjugated anti-ZO1 (Jackson ImmunoResearch, West Grove, PA). Endothelial cell permeability was assessed using the Evans blue method (source). In brief, mice were weighed and injected with 30 mg/kg Evans blue. After 10 minute of circulation time, mice were sacrificed and the pulmonary vasculature was flushed with 10 ml PBS. Lungs were dried at 55° C. for 24 hours and then incubated in 500 μl formamide for 48 hours at 55° C. Evans blue extraction calculated by measuring the optical density at 620 nm and comparing to a standard curve, and values were normalized to dry lung weight.

mouse pRBCs [4] = experiment: Hemolysis (cell-free hemoglobin) in stored mouse pRBCs; format: cell-based; settings: mouse pRBCs stored at 4° C. for 14 days, inhibitor added prior to storage
Description: as §1, §2, §3

Row | Compound | hemolysis (cell-free hemoglobin) (human pRBCs [1]) | MP formation (mouse pRBCs [2]) | age-related phosphatidylserine expression (annexin V positivity) (mouse erythrocytes; aged mouse erythrocytes) | age-related decrease in cell complexity (side scatter) (mouse erythrocytes; stored mouse erythrocytes) | reduction of band 3 degradation (eosin-5-maleimide) (mouse erythrocytes; stored mouse erythrocytes, 125 μM AT) [%] | age-related decrease in cell size (forward scatter) (mouse erythrocytes; stored mouse pRBCs) | MP formation (human pRBCs [3]) | disruption of tight junctions in the lung (ZO1) (C57BL/6 mice) | inflammatory cell recruitment to the lungs (C57BL/6 mice) | lung edema (C57BL/6 mice) | hemolysis (cell-free hemoglobin) (mouse pRBCs [4])
1 | CN(C)CCC=C1c2ccccc2CCc2ccccc21 [AT, Amitriptyline] | dose-dependent reduction in hemolysis | dose-dependent reduction of MP formation | reduced this age-related phosphatidylserine expression in a dose dependent manner | mitigated | ~50 | mitigated | dose-dependent reduction of MP formation | mitigated | greatly reduced | greatly reduced | dose-dependent reduction in hemolysis
2 | CNCCC(Oc1ccc(C(F)(F)F)cc1)c1ccccc1 (stereo not drawn) [Fluoxetine] | – | – | – | – | – | – | – | – | – | – | reduced hemolysis
